The numbers were not newly measured in patent US5298246A, “Stable pharmaceutical composition and method for its production” (Kanegafuchi Kagaku Kogyo Kabushiki Kaisha, priority 1991, dated 1994), which cites them from elsewhere.

For `COC1=C(OC)C(=O)C(C/C=C(\C)CC/C=C(\C)CC/C=C(\C)CC/C=C(\C)CC/C=C(\C)CC/C=C(\C)CC/C=C(\C)CC/C=C(\C)CC/C=C(\C)CCC=C(C)C)=C(C)C1=O` [ubidecarenone], the “absorbability upon oral administration” value was “low”.
